Laboratory results: PubChem BioAssay (NCI)
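Protocol summary: plate cells (96-well), add compound at 5 concentrations, incubate 48 h, interpolate endpoints linearly. TGI: concentration producing complete growth inhibition.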

Key:
Test in all cases: NCI anticancer screen, dose series, 48 h
786-0 renal = test system: 786-0 renal
A498 renal = test system: A498 renal
A549 NSCLC = test system: A549 NSCLC
ACHN renal = test system: ACHN renal
BT-549 breast = test system: BT-549 breast
CAKI-1 renal = test system: CAKI-1 renal
CCRF-CEM leukemia = test system: CCRF-CEM leukemia
COLO 205 colon = test system: COLO 205 colon
DU-145 prostate = test system: DU-145 prostate
EKVX NSCLC = test system: EKVX NSCLC
HCC-2998 colon = test system: HCC-2998 colon
HCT-116 colon = test system: HCT-116 colon
HCT-15 colon = test system: HCT-15 colon
HL-60(TB) leukemia = test system: HL-60(TB) leukemia
HOP-62 NSCLC = test system: HOP-62 NSCLC
HOP-92 NSCLC = test system: HOP-92 NSCLC
HS 578T breast = test system: HS 578T breast
HT29 colon = test system: HT29 colon
IGROV1 ovarian = test system: IGROV1 ovarian
KM12 colon = test system: KM12 colon
LOX IMVI melanoma = test system: LOX IMVI melanoma
M14 melanoma = test system: M14 melanoma
MALME-3M melanoma = test system: MALME-3M melanoma
MCF7 breast = test system: MCF7 breast
MDA-MB-231 breast = test system: MDA-MB-231 breast
MDA-MB-435 = test system: MDA-MB-435
MDA-N = test system: MDA-N
MOLT-4 leukemia = test system: MOLT-4 leukemia
NCI-H226 lung = test system: NCI-H226 lung
NCI-H23 lung = test system: NCI-H23 lung
NCI-H460 lung = test system: NCI-H460 lung
NCI-H522 lung = test system: NCI-H522 lung
NCI/ADR-RES ovarian = test system: NCI/ADR-RES ovarian
OVCAR-3 ovarian = test system: OVCAR-3 ovarian
OVCAR-4 ovarian = test system: OVCAR-4 ovarian
OVCAR-5 ovarian = test system: OVCAR-5 ovarian
OVCAR-8 ovarian = test system: OVCAR-8 ovarian
RPMI-8226 leukemia = test system: RPMI-8226 leukemia
RXF 393 renal = test system: RXF 393 renal
SF-268 CNS = test system: SF-268 CNS
SF-295 CNS = test system: SF-295 CNS
SF-539 CNS = test system: SF-539 CNS
SK-MEL-2 melanoma = test system: SK-MEL-2 melanoma
SK-MEL-28 melanoma = test system: SK-MEL-28 melanoma
SK-MEL-5 melanoma = test system: SK-MEL-5 melanoma
SK-OV-3 ovarian = test system: SK-OV-3 ovarian
SN12C renal = test system: SN12C renal
SNB-19 CNS = test system: SNB-19 CNS
SR leukemia = test system: SR leukemia
SW-620 colon = test system: SW-620 colon
T-47D breast = test system: T-47D breast
TK-10 renal = test system: TK-10 renal
U251 CNS = test system: U251 CNS
UACC-257 melanoma = test system: UACC-257 melanoma
UACC-62 melanoma = test system: UACC-62 melanoma
UO-31 renal = test system: UO-31 renal

C=Cc1c(C)c(O)cc2c1-c1ccc(O)c(C)c1CC2
TGI (786-0 renal): 34 µM | TGI (A498 renal): 27.7 µM | TGI (A549 NSCLC): 55.7 µM | TGI (ACHN renal): 81.1 µM | TGI (BT-549 breast): 59.7 µM | TGI (CAKI-1 renal): 46.2 µM | TGI (CCRF-CEM leukemia): 40.6 µM | TGI (COLO 205 colon): 41.8 µM | TGI (DU-145 prostate): 28.5 µM | TGI (EKVX NSCLC): 24.3 µM | TGI (HCC-2998 colon): 35.3 µM | TGI (HCT-116 colon): 28.4 µM | TGI (HCT-15 colon): 44.5 µM | TGI (HL-60(TB) leukemia): 38.6 µM | TGI (HOP-62 NSCLC): 83.8 µM | TGI (HOP-92 NSCLC): 54.5 µM | TGI (HS 578T breast): 21.7 µM | TGI (HT29 colon): 53.2 µM | TGI (IGROV1 ovarian): 35.6 µM | TGI (KM12 colon): 30 µM | TGI (LOX IMVI melanoma): 31.8 µM | TGI (M14 melanoma): 52.5 µM | TGI (MALME-3M melanoma): 45.9 µM | TGI (MCF7 breast): 38.9 µM | TGI (MDA-MB-231 breast): 60.6 µM | TGI (MDA-MB-435): 28.2 µM | TGI (MDA-N): 36.6 µM | TGI (MOLT-4 leukemia): 30.6 µM | TGI (NCI-H226 lung): 43 µM | TGI (NCI-H23 lung): 41.3 µM | TGI (NCI-H460 lung): 45 µM | TGI (NCI-H522 lung): 43.1 µM | TGI (NCI/ADR-RES ovarian): 71.8 µM | TGI (OVCAR-3 ovarian): > 100 µM | TGI (OVCAR-4 ovarian): 92 µM | TGI (OVCAR-5 ovarian): > 100 µM | TGI (OVCAR-8 ovarian): 39.4 µM | TGI (RPMI-8226 leukemia): 56.6 µM | TGI (RXF 393 renal): 30.2 µM | TGI (SF-268 CNS): 63.5 µM | TGI (SF-295 CNS): 32.2 µM | TGI (SF-539 CNS): 29.3 µM | TGI (SK-MEL-2 melanoma): 35.5 µM | TGI (SK-MEL-28 melanoma): 31.5 µM | TGI (SK-MEL-5 melanoma): 33 µM | TGI (SK-OV-3 ovarian): 36.2 µM | TGI (SN12C renal): 43.1 µM | TGI (SNB-19 CNS): 74.5 µM | TGI (SR leukemia): 17.7 µM | TGI (SW-620 colon): 54.6 µM | TGI (T-47D breast): 27.1 µM | TGI (TK-10 renal): 41.4 µM | TGI (U251 CNS): 34.3 µM | TGI (UACC-257 melanoma): 28 µM | TGI (UACC-62 melanoma): 23.1 µM | TGI (UO-31 renal): 32.2 µM
